Data as given in patent US20230277553A1, “THERAPEUTIC COMPOSITION OF CURE-PRO COMPOUNDS FOR TARGETED DEGRADATION OF BET DOMAIN PROTEINS, AND METHODS OF MAKING AND USAGE” (CORNELL UNIVERSITY, priority 2020, published 2023).
Entries after “also recorded” stand apart in the source; their conditions may differ.

Legend:
[1] = biological target: T1, BRD4 (Homo sapiens, UniProt O60885); assay: Summary of BRD4 degradation by CURE-PRO pairs, estimated from Western Blot or WES (Proteinsimple); format: cell-based; parameters: endogenous in cells; settings: for Degradation of BRD4 in combination with CRBN ligand [drawing 372] / Degradation of BRD4 in combination with CRBN ligand [drawing 371] / Degradation of BRD4 in combination with CRBN ligand [drawing 370]: Table 1; for Degradation of BRD4 in combination with CRBN ligand [drawing 372]: third drawing (8066); for Degradation of BRD4 in combination with CRBN ligand [drawing 371]: second drawing (8047); for Degradation of BRD4 in combination with CRBN ligand [drawing 370]: aromatic 1,2-diol- or hindered cis-1,2-diol-containing CRBN ligand, first drawing (8046); for Degradation of BRD4 in combination with VHL ligand [drawing 397]: second drawing (8305)
Excerpt: A black check mark indicates efficacy of 30% to 70% or higher protein degradation.

[2] = biological target: T1, BRD4; assay: CURE-PRO-mediated BRD4 degradation, Western blot, HeLa cells; format: cell-based; parameters: endogenous in cells; host or cells: HeLa; settings: 24 h; for BRD4 degradation, co-treatment with CRBN ligand 8046: 1:1 with 8046, 10 μM each; for BRD4 degradation, co-treatment with CRBN ligand 8047: 1:1 with 8047, 10 μM each; for BRD4 degradation, co-treatment with CRBN ligand 8066: 1:1 with 8066, 10 μM each (BRD-E10: 10 and 100 μM)
Method: All cell lines were purchased from ATCC or DSMZ and grown at 37° C. with 5% CO2. Human HeLa cells were cultured in complete growth medium (Dulbecco's modified Eagle's medium (DMEM) supplemented with 10% FBS); MCF7 cells were cultured in complete growth medium (Dulbecco's modified Eagle's medium (DMEM) supplemented with 10% FBS and 0.01 mg/ml human recombinant insulin (Sigma Aldrich); Namalwa and MOLM-13 cells were cultured in complete growth medium (RPMI 1640 medium supplemented with 10% FBS); MV-4-11 were cultured in complete growth medium (Iscove's Modified Dulbecco's medium, supplemented with 10% FBS); HCT116 cells were cultured in complete growth medium (McCoy's 5a Medium supplemented with 10% FBS). For cellular degradation of BRD4 studies, cells were seeded in a 12-well plate at 70-80% confluency, allowed to attach overnight, and incubated with the indicated compounds for the indicated time. When indicated, a 15-minute pretreatment with 10 μM pomalidomide, 10 μM VHL298, 10 μM Nutlin3a, 1 μM MG-132 or 1 μM Carfilzomib was performed before the addition of CURE-PROs. For washout studies, after CURE-PRO treatment, media was aspirated and incubated with complete medium for the indicated time before lysis.
Anti-BRD4 (13440, 1:1,000 dilution for Western Blot and 1:25 dilution for ProteinSimple); Anti-BRD2 (5848 1:1,000 dilution for Western Blot and 1:25 dilution for ProteinSimple); β-Actin (3700, 1:2,000 dilution for Western Blot), β-Actin (4970, 1:50 dilution for ProteinSimple) anti-mouse IgG-HRP, and anti-rabbit IgG-HRP antibodies were purchased Cell Signaling Technology. Anti-GAPDH (600-401-A33, 1:100 dilution for ProteinSimple) was purchased from Rockland Immunochemicals, Inc. Anti-BRD3 (sc-81202, 1:200 dilution for Western Blot) was purchased from Santa Cruz Biotechnology.
HeLa, MCF7, or HCT116 cells (2.5-3×10^6) were treated for 24 hours with the indicated compounds solubilized in DMSO. The cells were washed in ice-cold PBS and were then lysed in RIPA lysis buffer (150 mM NaCl, 5 mM EDTA, 1% NP-40, 0.5% sodium deoxycholate, 0.1% SDS, 50 mM Tris, pH 8.0.) with Roche protease inhibitor complete cocktail and phosphatase inhibitors (10 mM sodium fluoride, 10 mM sodium pyrophosphate, 1 mM sodium orthovanadate and 20 mM β-glycerophosphate). The total protein concentrations were determined by Bradford Protein Assay and 10-20 μg of protein was loaded onto 4-15% Tris-Glycine gradient gels (Biorad). After standard gel electrophoresis, the separated proteins were transferred to PVDF membrane by wet transfer. The immunoblots were then blocked for 1 hour in 5% skim milk in TBST or 5% BSA in TBST, according to manufacturer's instructions, before an overnight incubation at 4° C. with indicated antibodies and membranes. Membranes were then incubated with the appropriate horseradish peroxidase-conjugated secondary antibodies (1:5,000 dilution) for 1 h at room temperature and the bands were visualized using the Clarity Max Western ECL Substrate (Biorad) and the ChemiDoc Imaging System (Biorad). Signal was detected with ECL Western Blotting Substrate (Pierce) and X-ray film processed with a Konica SRX-101 X-ray film processor or captured by Bio-Rad's Chemidoc Imaging system.
HeLa cells (2.5×106) were treated for 24 hours with the sample compounds solubilized in DMSO. Compounds were added at 1-10 μM each. Standardized protein samples were electrophoresed and imaged as described in the immunoblotting description above. FIGS. 6-18 depicts the CURE-PRO-mediated BRD4 degradation for BRD monomers (JQ1 derivatives comprising of catechol linkers), and CRBN ligands, 8048 and 8049 (pomalidomide derivatives comprising boronic acid linkers) combined in a 1:1 ratio.
HeLa cells (2.5×106) were treated for 24 hours with the compounds solubilized in DMSO. The compounds were added at 10 μM each. Standardized protein samples were electrophoresed and imaged as described in the immunoblotting section above. […]

[3] = Table 3, aromatic 1,2-diol-containing VHL ligand

Row | Structure (SMILES) | Degradation of BRD4 in combination with CRBN ligand [drawing 372] [1] | Degradation of BRD4 in combination with CRBN ligand [drawing 371] [1] | BRD4 degradation, co-treatment with CRBN ligand 8047 ([2]; Western blot) | other results
1 | COc1ccc2c(c1)C(c1ccc(Cl)cc1)=N[C@@H](CC(=O)NCCCCCNC(=O)c1ccc(B(O)O)cc1)c1nnc(C)n1-2 [BRD- E07] | ✓ (A black check mark indicates efficacy of 30% to 70% or higher protein degradation) |  |  | 
2 | COc1ccc2c(c1)C(c1ccc(Cl)cc1)=N[C@@H](CC(=O)NCCNC(=O)Cc1cccc(B(O)O)c1)c1nnc(C)n1-2 [BRD- E38] |  | ✓ (A black check mark indicates efficacy of 30% to 70% or higher protein degradation) |  | 
3 | CCNC(=O)C[C@@H]1N=C(c2ccc(Cl)cc2)c2cc(OCCOCCNC(=O)c3ccc(B(O)O)cc3)ccc2-n2c(C)nnc21 [BRD- E39] |  |  |  | Degradation of BRD4 in combination with CRBN ligand [drawing 370] [1]: ✓ (A black check mark indicates efficacy of 30% to 70% or higher protein degradation)
4 | CCNC(=O)C[C@@H]1N=C(c2ccc(Cl)cc2)c2cc(OCCOCCOCCNC(=O)c3ccc(O)c(O)c3)ccc2-n2c(C)nnc21 [BRD- N40] |  |  |  | Degradation of BRD4 in combination with aryl-boronic acid-containing VHL ligand ([1]; Table 6, head shows drawings [drawing 429] and [drawing 430]): ✓ (A black check mark indicates efficacy of 30% to 70% or higher protein degradation)
5 | COc1ccc2c(c1)C(c1ccc(Cl)cc1)=N[C@@H](CC(=O)NCCNC(=O)c1cccc(B(O)O)c1)c1nnc(C)n1-2 [BRD-E2] |  |  |  | Degradation of BRD4 in combination with VHL ligand [drawing 397] [1, 3]: ✓ (A black check mark indicates efficacy of 30% to 70% or higher protein degradation)
6 | COc1ccc2c(c1)C(c1ccc(Cl)cc1)=N[C@@H](CC(=O)NCCCNC(=O)c1cccc(B(O)O)c1)c1nnc(C)n1-2 [BRD-E4] | ✓ (A black check mark indicates efficacy of 30% to 70% or higher protein degradation) | ✓ (A black check mark indicates efficacy of 30% to 70% or higher protein degradation) | causes degradation of BRD4; also recorded: Degradation is noted | Degradation of BRD4 in combination with CRBN ligand [drawing 370] [1]: ✓ (A black check mark indicates efficacy of 30% to 70% or higher protein degradation); BRD4 degradation, co-treatment with CRBN ligand 8046 ([2]; Western blot): causes degradation of BRD4; also recorded: Degradation is noted; BRD4 degradation, co-treatment with CRBN ligand 8066 ([2]; Western blot): causes degradation of BRD4; also recorded: Degradation is noted
7 | COc1ccc2c(c1)C(c1ccc(Cl)cc1)=N[C@@H](CC(=O)NCCCCNC(=O)c1ccc(B(O)O)cc1)c1nnc(C)n1-2 [BRD-E5] | ✓ (A black check mark indicates efficacy of 30% to 70% or higher protein degradation) | ✓ (A black check mark indicates efficacy of 30% to 70% or higher protein degradation) | causes degradation of BRD4; also recorded: Degradation is noted | BRD4 degradation, co-treatment with CRBN ligand 8066 ([2]; Western blot): causes degradation of BRD4; also recorded: Degradation is noted
8 | COc1ccc2c(c1)C(c1ccc(Cl)cc1)=N[C@@H](CC(=O)NCc1ccc(B(O)O)cc1)c1nnc(C)n1-2 [BRD-E09, (4-((2-((4S)-6-(4-chlorophenyl)-8-methoxy-1-methyl-4H-benzo[f][1,2,4]triazolo[4,3-a][1,4]diazepin-4-yl)acetamido)methyl)phenyl)boronic acid] |  |  |  | Degradation of BRD4 in combination with VHL ligand [drawing 397] [1, 3]: ✓ (A black check mark indicates efficacy of 30% to 70% or higher protein degradation)
9 | COc1ccc2c(c1)C(c1ccc(Cl)cc1)=N[C@@H](CC(=O)NCc1cccc(B(O)O)c1)c1nnc(C)n1-2 [BRD-E10] |  | ✓ (A black check mark indicates efficacy of 30% to 70% or higher protein degradation) |  | Degradation of BRD4 in combination with CRBN ligand [drawing 370] [1]: ✓ (A black check mark indicates efficacy of 30% to 70% or higher protein degradation); Degradation of BRD4 in combination with VHL ligand [drawing 396] ([1]; Table 3, aromatic 1,2-diol-containing VHL ligand, first drawing (by text: 8304)): ✓ (A black check mark indicates efficacy of 30% to 70% or higher protein degradation); Concentration at which BRD4 degradation is observed, co-dosed with 8046 ([2]; 1:1 with 8046): 100 µM; Concentration at which complete BRD4 degradation is demonstrated, with 8047 ([2]; 1:1 with 8047, tested 10 and 100 μM): 10 µM
10 | COc1ccc2c(c1)C(c1ccc(Cl)cc1)=N[C@@H](CC(=O)NCCNC(=O)Cc1ccc(B(O)O)cc1)c1nnc(C)n1-2 [BRD-E27, (4-(2-((2-(2-((4S)-6-(4-chlorophenyl)-8-methoxy-1-methyl-4H-benzo[f][1,2,4]triazolo[4,3-a][1,4]diazepin-4-yl)acetamido)ethyl)amino)-2-oxoethyl)phenyl)boronic acid] |  | ✓ (A black check mark indicates efficacy of 30% to 70% or higher protein degradation) | causes degradation of BRD4 | 
11 | COc1ccc2c(c1)C(c1ccc(Cl)cc1)=N[C@@H](CC(=O)NCCNC(=O)/C=C/c1cccc(B(O)O)c1)c1nnc(C)n1-2 [BRD-E30, (3-((E)-3-((2-(2-((4S)-6-(4-chlorophenyl)-8-methoxy-1-methyl-4H-benzo[f][1,2,4]triazolo[4,3-a][1,4]diazepin-4-yl)acetamido)ethyl)amino)-3-oxoprop-1-en-1-yl)phenyl)boronic acid] | ✓ (A black check mark indicates efficacy of 30% to 70% or higher protein degradation) | ✓ (A black check mark indicates efficacy of 30% to 70% or higher protein degradation) |  | BRD4 degradation, BRD ligand alone ([2]; BRD monomer alone, Western blot): no change in expression
12 | CCNC(=O)C[C@@H]1N=C(c2ccc(Cl)cc2)c2cc(OCCOCCOCCNC(=O)c3cccc(B(O)O)c3)ccc2-n2c(C)nnc21 [BRD-E42] |  | ✓ (A black check mark indicates efficacy of 30% to 70% or higher protein degradation) | causes degradation of BRD4 | 
13 | CCNC(=O)C[C@@H]1N=C(c2ccc(Cl)cc2)c2cc(OCCOCCOCCOCCNC(=O)c3ccc(B(O)O)cc3)ccc2-n2c(C)nnc21 [BRD-E43] | ✓ (A black check mark indicates efficacy of 30% to 70% or higher protein degradation) | ✓ (A black check mark indicates efficacy of 30% to 70% or higher protein degradation) | causes degradation of BRD4 | BRD4 degradation, co-treatment with CRBN ligand 8046 ([2]; Western blot): but not 8046; BRD4 degradation, co-treatment with CRBN ligand 8066 ([2]; Western blot): causes degradation of BRD4; also recorded: Degradation is noted
14 | CCNC(=O)C[C@@H]1N=C(c2ccc(SCc3ccc(B(O)O)cc3)cc2)c2cc(OC)ccc2-n2c(C)nnc21 [BRD-E54] |  |  |  | Degradation of BRD4 in combination with VHL ligand [drawing 397] [1, 3]: ✓ (A black check mark indicates efficacy of 30% to 70% or higher protein degradation)
15 | COc1ccc2c(c1)C(c1ccc(Cl)cc1)=N[C@@H](CC(=O)Nc1ccc(O)c(O)c1)c1nnc(C)n1-2 [BRD-N68] |  |  |  | Degradation of BRD4 in combination with CRBN ligand [drawing 407] ([1]; Table 4, aryl-boronic acid-containing CRBN ligand, first drawing (by text: 8048)): ✓ (A black check mark indicates efficacy of 30% to 70% or higher protein degradation)
